Results: patent publication US20220110910A1, “CANNABINOID-CONTAINING COMPLEX MIXTURES FOR THE TREATMENT OF CYTOKINE RELEASE SYNDROME WHILE PRESERVING KEY ANTI-VIRAL IMMUNE REACTIONS” (GBS Global BioPharma, Inc., priority 2020, published 2022)
Entries after “also recorded” stand apart in the source; their conditions may differ.

Tests used:
Format in all cases: cell-based, human
monocytes [1] = test: IL-6+ monocytes after LPS stimulation (intracellular staining); settings: LPS 1000 ng/mL, vs vehicle
Description: (§1) In immunological activity experiments, PBMC suspensions were pre-treated with cannabinoid and/or terpene compounds for 30 minutes before treatment with designated stimuli, cultured in 96 well tissue culture plates, and incubated at 37° C. and 5.0% CO2. In pDC experiments, cell suspensions were stimulated with CpG-ODN Type A 2216 (15 μg/mL) (InvivoGen©, San Diego, Calif.) following treatment with cannabinoids. Golgi transport inhibitors Monensin (2 μM)/Brefeldin A (3.0 μg/mL) (Thermo Fisher Scientific, Waltham, Mass.) were added to culture 3 hours post-stimulation, and after 7 hours of stimulation cells were harvested for evaluation by flow cytometry for IFNα and TNFα. In monocyte experiments, cell suspensions were stimulated with 1000 ng/mL LPS (S. typhosa, Sigma Aldrich, St. Louis, Mo.) for 18 hours before harvesting supernatants for IL-1β, Golgi blocked for 6 hours before harvesting cells for assessment of IL-6, or cultured for 48 hours before harvesting cells for assessment of HLA-DR, CD80, and CD86. In phagocytosis experiments, cell suspensions were treated with 3.0 mg/mL of pHrodo Green BioParticles (Thermo Fisher). […] CD25 and CD69 were assessed by flow cytometry 24 hours post-stimulation. In proliferation experiments, cell suspensions were incubated with CFSE Cell Division Tracker (Biolegend) according to manufacturer protocols, harvested 4 days post-stimulation and assessed by flow cytometry. […]
(§2) In brief, pDC, monocyte and T cell were identified using antibodies directed against unique epitopes for each cell type and analyzed by flow cytometry. […] For intracellular staining, fixed cells were permeabilized in BD Permwash and incubated with appropriate antibodies and 7% human AB serum. pDC were identified as CD303+and assessed for intracellular IFNα and TNFα. Monocytes were identified as CD14+ and assessed for extracellular HLA-DR, CD80, CD86, and intracellular TNFα and IL-6. […] T cells were identified as CD3+ and T cell subsets identified by CD4+ and CD8+ and assessed for extracellular CD25 and CD69 and intracellular IFNγ and IL-4. […]

monocytes [2] = test: Co-stimulatory markers HLA-DR, CD80, CD86 on monocytes after LPS; settings: 2 days, vs vehicle
Description: (§3) In immunological activity experiments, PBMC suspensions were pre-treated with cannabinoid and/or terpene compounds for 30 minutes before treatment with designated stimuli, cultured in 96 well tissue culture plates, and incubated at 37° C. and 5.0% CO2. In pDC experiments, cell suspensions were stimulated with CpG-ODN Type A 2216 (15 μg/mL) (InvivoGen©, San Diego, Calif.) following treatment with cannabinoids. Golgi transport inhibitors Monensin (2 μM)/Brefeldin A (3.0 μg/mL) (Thermo Fisher Scientific, Waltham, Mass.) were added to culture 3 hours post-stimulation, and after 7 hours of stimulation cells were harvested for evaluation by flow cytometry for IFNα and TNFα. In monocyte experiments, cell suspensions were stimulated with 1000 ng/mL LPS (S. typhosa, Sigma Aldrich, St. Louis, Mo.) for 18 hours before harvesting supernatants for IL-1β, Golgi blocked for 6 hours before harvesting cells for assessment of IL-6, or cultured for 48 hours before harvesting cells for assessment of HLA-DR, CD80, and CD86. In phagocytosis experiments, cell suspensions were treated with 3.0 mg/mL of pHrodo Green BioParticles (Thermo Fisher). In T cell experiments, cells were plated on 96 well tissue culture plates pre-coated with 5.0 μg/mL anti-CD3 (clone UCHT1, Biolegend, San Diego, Calif.) and stimulated with 5.0 μg/mL anti-CD28 (clone 28.2, Biolegend) and supplemented with 5.0 ng/mL IL-2 (Roche Applied Science, Indianapolis, Ind.). CD25 and CD69 were assessed by flow cytometry 24 hours post-stimulation. In proliferation experiments, cell suspensions were incubated with CFSE Cell Division Tracker (Biolegend) according to manufacturer protocols, harvested 4 days post-stimulation and assessed by flow cytometry. Cell suspensions were further stimulated with 50 ng/mL phorbol 12-myristate 13-acetate (PMA) and 1000 ng/mL ionomycin (Io) at 4 days post-stimulation for 18 hours, Golgi blocked for 6 hours, and harvested for IL-4 and IFNγ assessment by flow cytometry.
In brief, pDC, monocyte and T cell were identified using antibodies directed against unique epitopes for each cell type and analyzed by flow cytometry. Cells were fixed in BD CytoFix and resuspended in FACS buffer for extracellular staining. To determine the changes in cell viability in mixed PBMC, gates were first set on singlet events, then CD45+ cells, then populations identified by CD3+ (T cells) and CD14+ (monocytes), and then 7-AAD- for viability. Likewise, for pDC viability experiments, pDC were identified as CD303+ and viable by exclusion of Near IR L/D stain (Life Technologies, Carlsbad, Calif.). For intracellular staining, fixed cells were permeabilized in BD Permwash and incubated with appropriate antibodies and 7% human AB serum. pDC were identified as CD303+and assessed for intracellular IFNα and TNFα. Monocytes were identified as CD14+ and assessed for extracellular HLA-DR, CD80, CD86, and intracellular TNFα and IL-6. In phagocytosis experiments, PBMC were identified as CD45+ and monocytes were identified based on side scatter and then phagocytosing monocytes. T cells were identified as CD3+ and T cell subsets identified by CD4+ and CD8+ and assessed for extracellular CD25 and CD69 and intracellular IFNγ and IL-4. To analyze T cell proliferation, FlowJo 10.0 proliferation tool was used by setting the undivided peak of CFSE stained cells in each sample.

monocytes [3] = test: TNFα+ monocytes after CpG-ODN stimulation (intracellular staining); settings: CpG-ODN 15 μg/mL, 6 hours, vs vehicle
Description: FIGS. 9A-9B reveal the TNFα decreasing potential of cannabinol (CBN). […] PBMC were isolated from human peripheral blood and pre-treated with the indicated concentrations of cannabinol for 30 minutes, followed by stimulation with 15 μg/mL CpG-ODN for 6 hours (FIG. 9A). Cells were non-enzymatically released from culture plates and assessed for the percentage of TNFα+ monocytes (FIG. 9A) by intracellular staining. For FIG. 9B, PBMC were isolated from human peripheral blood and pre-treated with the indicated concentrations of cannabinol for 30 minutes, followed by treatment with 3.0 mg/mL of pHrodo Green BioParticles (FIG. 9B). In FIG. 9B, cells were treated with 3.0 mg/mL of pHrodo Green BioParticles and assessed for phagocytosis monocytes by flow cytometry within 2 hours. Data are normalized to each donor's vehicle control when appropriate and presented as mean±SEM. N=4-6 donors per treatment group. […] *p<0.05 when compared to VH (FIG. 9A), or **p<0.01 when compared to VH (FIG. 9B), by repeated measure one-way ANOVA with Dunnett's posttest.
as §2, with “cytometry. Cells were fixed in BD CytoFix and resuspended in FACS buffer for extracellular staining.” for “cytometry.”

CD4+ T cells [4] = test: T cell proliferation (CFSE, FlowJo Proliferation tool); settings: 10 μM
Description: as §3
as §2, with “cytometry. Cells were fixed in BD CytoFix and resuspended in FACS buffer for extracellular staining.” for “cytometry.”

CD8+ T cells [5] = test: as above; settings: increasing concentration up to 10 μM
Description: as §3
as §2, with “cytometry. Cells were fixed in BD CytoFix and resuspended in FACS buffer for extracellular staining.” for “cytometry.”

monocytes [6] = test: IL-1β ELISA in supernatants of LPS-stimulated PBMC; settings: LPS 1000 ng/mL, vs vehicle
Description: as §3
To quantify IL-1β produced by monocytes, supernatants were collected from LPS stimulated cell suspensions after 18 hours and frozen at −80° C. ELISA MAX from Biolegend was used as per manufacturer protocol to quantify IL-1β to a sensitivity of […].

monocytes [7] = test: Phagocytosis of pHrodo Green BioParticles by monocytes; settings: 10 μM; pHrodo Green BioParticles 3.0 mg/mL; vs vehicle
Description: as §1, §2

CD8+ T cells [8] = test: T cell activation markers CD25 and CD69, 24 hours post-stimulation; settings: 10 μM
Description: as §1, §2

CD8+ T cells [9] = test: Intracellular IFNγ after anti-CD3/anti-CD28 stimulation and PMA/ionomycin; settings: vs vehicle
Description: as §3
as §2, with “cytometry. Cells were fixed in BD CytoFix and resuspended in FACS buffer for extracellular staining.” for “cytometry.”

CD4+ T cells [10] = test: Intracellular IFNγ and IL-4 after anti-CD3/anti-CD28 stimulation and PMA/ionomycin; settings: vs vehicle
Description: as §3
as §2, with “cytometry. Cells were fixed in BD CytoFix and resuspended in FACS buffer for extracellular staining.” for “cytometry.”

SMILES: CCCCCc1cc(O)c2c(c1)OC(C)(CCC=C(C)C)C=C2 (centres unmarked) [CBC, cannabichromene]
- IL-6 in monocytes (monocytes [1]; 10 μM): significantly decreased
- HLA-DR co-stimulatory marker in monocytes (monocytes [2]; 10 μM): increased
- CD86+ co-stimulatory marker in monocytes (monocytes [2]; 1-10 μM): increased
- TNFα in monocytes (monocytes [3]; 0.1 μM): significantly increased
- T cell proliferation in CD4+ T cells (CD4+ T cells [4]): significantly decreased
- T cell proliferation in CD8+ T cells (CD8+ T cells [5]): not statistically significant

SMILES: C=C(C)[C@@H]1CCC(C)=C[C@H]1c1c(O)cc(CCCCC)cc1O [CBD, cannabidiol, reference compound]
- IL-1β in monocytes (monocytes [6]; 10 μM): significantly decreased
- IL-6 in monocytes (monocytes [1]; 10 μM): significantly decreased
- phagocytosis by monocytes (monocytes [7]): reduced; also recorded: significantly decreased

SMILES: C=C(C)[C@@H]1CCC(C)=C[C@H]1c1c(O)cc(CCC)cc1O [CBDV, cannabidivarin]
- IL-1β in monocytes (monocytes [6]; 0.01 μM): increased; also recorded: significantly increases
- IL-1β in monocytes (monocytes [6]; 10 μM): significantly decreased
- IL-6 in monocytes (monocytes [1]; 1-10 μM): significantly decreased
- CD80+ co-stimulatory marker in monocytes (monocytes [2]; 10 μM): significantly decreased
- CD86+ co-stimulatory marker in monocytes (monocytes [2]; 10 μM): increased
- HLA-DR co-stimulatory marker in monocytes (monocytes [2]; 10 μM): significantly decreased
- CD25+ activation marker in CD8+ T cells (CD8+ T cells [8]): decreased
- CD69+ activation marker in CD8+ T cells (CD8+ T cells [8]): decreased
- phagocytosis by monocytes (monocytes [7]): significantly decreased
- IFNγ in T cells (FIG. 8A: CD8+ T cells) (CD8+ T cells [9]; 0.01 μM): significantly decreased

SMILES: CCCCCc1cc(O)c(C/C=C(\C)CCC=C(C)C)c(O)c1 [CBG, cannabigerol]
- IFNγ in CD4+ T cells (CD4+ T cells [10]; 0.01-1 μM): significantly decreased
- IL-4 levels in CD4+ T cells (CD4+ T cells [10]; 0.1-1 μM): significantly decreased
- IL-1β in monocytes (monocytes [6]; 10 μM): significantly decreased
- HLA-DR co-stimulatory marker in monocytes (monocytes [2]; 10 μM): increased; also recorded: enhanced
- CD86+ co-stimulatory marker in monocytes (monocytes [2]; 1-10 μM): increased; also recorded: enhanced
- IFNγ in CD8+ T cells (CD8+ T cells [9]; 0.01-1 μM): significantly decreased

SMILES: CCCCCc1cc(O)c2c(c1)OC(C)(C)c1ccc(C)cc1-2 [CBN, cannabinol]
- IFNγ in CD4+ T cells (CD4+ T cells [10]; 0.001-0.1 μM): significantly decreased
- TNFα in monocytes (monocytes [3]; 10 μM): significantly decreased
- phagocytosis by monocytes (monocytes [7]): decreasing; also recorded: significantly decreased
- IFNγ in CD8+ T cells (CD8+ T cells [9]; 0.001-0.1 μM): significantly decreased
